Measured values: the Kinase Knowledgebase extract (Sharma et al. 2016)

Each compound was assayed against PIK3CG (human) (UniProt P48736) (assay: Assessment of PIK3CG Kinase Activity).
Chain of PIK3CG (human) (P48736 whole entry, looked up): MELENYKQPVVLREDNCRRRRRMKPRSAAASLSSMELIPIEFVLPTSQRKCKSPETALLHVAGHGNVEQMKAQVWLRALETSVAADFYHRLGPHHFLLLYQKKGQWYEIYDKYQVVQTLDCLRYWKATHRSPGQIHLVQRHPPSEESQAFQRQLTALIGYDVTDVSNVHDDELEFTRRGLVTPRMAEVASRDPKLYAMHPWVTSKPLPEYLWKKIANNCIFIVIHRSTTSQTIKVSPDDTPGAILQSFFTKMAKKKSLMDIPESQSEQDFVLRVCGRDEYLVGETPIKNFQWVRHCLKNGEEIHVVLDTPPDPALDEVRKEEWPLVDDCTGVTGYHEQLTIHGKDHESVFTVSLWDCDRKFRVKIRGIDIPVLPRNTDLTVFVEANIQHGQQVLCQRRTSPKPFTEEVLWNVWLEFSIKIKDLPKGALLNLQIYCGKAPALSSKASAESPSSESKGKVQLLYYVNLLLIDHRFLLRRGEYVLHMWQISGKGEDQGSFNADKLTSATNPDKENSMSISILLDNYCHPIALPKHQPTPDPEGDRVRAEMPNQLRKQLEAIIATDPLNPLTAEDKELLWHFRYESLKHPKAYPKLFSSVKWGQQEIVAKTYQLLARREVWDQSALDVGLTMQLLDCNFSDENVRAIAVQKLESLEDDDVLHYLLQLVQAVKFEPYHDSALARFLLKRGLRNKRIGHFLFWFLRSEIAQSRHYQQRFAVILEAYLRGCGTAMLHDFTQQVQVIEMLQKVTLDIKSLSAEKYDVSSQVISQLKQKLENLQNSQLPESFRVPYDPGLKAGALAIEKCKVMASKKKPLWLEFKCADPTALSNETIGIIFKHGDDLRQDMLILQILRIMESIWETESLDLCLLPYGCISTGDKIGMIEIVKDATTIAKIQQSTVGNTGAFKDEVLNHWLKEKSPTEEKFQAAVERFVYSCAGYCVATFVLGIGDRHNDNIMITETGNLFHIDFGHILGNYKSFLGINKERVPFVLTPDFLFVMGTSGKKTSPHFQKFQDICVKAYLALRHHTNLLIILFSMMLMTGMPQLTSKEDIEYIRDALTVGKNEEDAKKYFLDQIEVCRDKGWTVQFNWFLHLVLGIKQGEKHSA

Row | IC50 | SMILES
1 | < 800 nM | CN1CCC(n2nc(-c3cccnc3)c3c2-c2sc(NC(=O)NCC(=O)N(C)C)nc2CC3)CC1
2 | < 800 nM | CNC(=O)Nc1nc2c(s1)-c1c(c(-c3ccccc3)nn1-c1cccc(Cl)c1)CC2
3 | < 800 nM | O=C(NCc1cccc(N2CCNC2=O)c1)Nc1nc2c(s1)-c1c(c(Nc3ccccn3)nn1-c1ccccc1)CC2
4 | < 800 nM | O=C(NCc1ccccc1-n1cccn1)Nc1nc2c(s1)-c1c(c(-c3cccnc3)nn1-c1ccccc1Cl)CC2
5 | < 800 nM | CNC(=O)Nc1nc2c(s1)-c1c(c(-c3cncnc3)nn1-c1ccccc1Cl)CC2
6 | < 800 nM | O=C(O)CC1(CNC(=O)Nc2nc3c(s2)-c2c(c(-c4cccnc4)nn2-c2ccccc2Cl)CC3)CCCCC1
7 | < 800 nM | O=C1CCC(CNC(=O)Nc2nc3c(s2)-c2c(c(-c4cncnc4)nn2-c2ccccc2Cl)CC3)N1 (centres undefined)
8 | < 800 nM | CC(=O)N(C)c1cccc(CNC(=O)Nc2nc3c(s2)-c2c(c(C4CC4)nn2-c2ccccc2Cl)CC3)c1
9 | < 800 nM | CCOC(=O)CCCNC(=O)Nc1nc2c(s1)-c1c(c(-c3ccccc3)nn1-c1ccccc1Cl)CC2
10 | < 800 nM | CCc1csc(CCNC(=O)Nc2nc3c(s2)-c2c(c(-c4cccnc4)nn2C2CCN(C4CCCC4)CC2)CC3)n1
11 | < 800 nM | CC(C)(C)OC(=O)N1CCCC1CNC(=O)Nc1nc2c(s1)-c1c(c(Nc3ccccn3)nn1-c1ccccc1)CC2 (centres undefined)
12 | < 800 nM | Cn1ccnc1CNC(=O)Nc1nc2c(s1)-c1c(c(-c3cccnc3)nn1-c1ccccc1Cl)CC2
13 | < 800 nM | CN1CCC(n2nc(-c3cccnc3)c3c2-c2sc(NC(=O)NCc4cccc(N(C)C)c4)nc2CC3)CC1
14 | < 800 nM | COC(=O)N1CCC[C@@H]1CNC(=O)Nc1nc2c(s1)-c1c(c(-c3cncnc3)nn1-c1ccccc1Cl)CC2
15 | < 800 nM | COc1cc(CNC(=O)Nc2nc3c(s2)-c2c(c(-c4cncnc4)nn2-c2ccccc2Cl)CC3)cc(OC)c1
16 | < 800 nM | O=C(Nc1nc2c(s1)-c1c(c(-c3cccnc3)nn1-c1ccccc1Cl)CC2)NC1(c2nc3ccc(Cl)cc3[nH]2)CCCCC1
17 | < 800 nM | CNC(=O)Nc1nc2c(s1)-c1c(c(-c3cccnc3)nn1-c1ccccc1Cl)CC2
18 | < 800 nM | COc1ccc(S(=O)(=O)NCCNC(=O)Nc2nc3c(s2)-c2c(c(-c4ccccc4)nn2-c2ccccc2Cl)CC3)cc1
19 | < 800 nM | CCc1noc(CCNC(=O)Nc2nc3c(s2)-c2c(c(-c4cccnc4)nn2-c2ccccc2Cl)CC3)n1
20 | < 800 nM | CN1CCN(CCNC(=O)Nc2nc3c(s2)-c2c(c(-c4cncnc4)nn2-c2ccccc2Cl)CC3)CC1
21 | < 800 nM | N#Cc1cccc(CNC(=O)Nc2nc3c(s2)-c2c(c(-c4cncnc4)nn2-c2ccccc2Cl)CC3)c1
22 | < 800 nM | CC(C)(C)OC(=O)N[C@H]1CC[C@H](CNC(=O)Nc2nc3c(s2)-c2c(c(-c4cccnc4)nn2-c2ccccc2Cl)CC3)CC1
23 | < 800 nM | O=C(NCc1ccc(CN2CCNC2=O)cc1)Nc1nc2c(s1)-c1c(c(-c3cccnc3)nn1-c1ccccc1Cl)CC2
24 | < 800 nM | CC(=O)Nc1cccc(CNC(=O)Nc2nc3c(s2)-c2c(c(-c4cccnc4)nn2-c2ccccc2Cl)CC3)c1
25 | < 800 nM | NS(=O)(=O)c1ccc(-n2nc(-c3cccnc3)c3c2-c2sc(NC(=O)NCc4cccc(N5CCNC5=O)c4)nc2CC3)c(Cl)c1
26 | < 800 nM | O=C(NCc1cccc(N2CCNC2=O)c1)Nc1nc2c(s1)-c1c(c(C3CC3)nn1-c1ccccc1Cl)CC2
27 | < 800 nM | CN1CCN(C(=O)CCCNC(=O)Nc2nc3c(s2)-c2c(c(-c4ccccc4)nn2-c2ccccc2Cl)CC3)CC1

Row | IC50 | SMILES
28 | < 800 nM | CC(C)(C)OC(=O)N1CCCCC1CNC(=O)Nc1nc2c(s1)-c1c(c(-c3cncnc3)nn1-c1ccccc1Cl)CC2 (centres undefined)
29 | < 800 nM | CCc1nnc(CCNC(=O)Nc2nc3c(s2)-c2c(c(-c4cccnc4)nn2-c2ccccc2Cl)CC3)o1
30 | < 800 nM | CC(C)(C)OC(=O)CCNC(=O)Nc1nc2c(s1)-c1c(c(-c3cncnc3)nn1-c1ccccc1Cl)CC2
31 | < 800 nM | CNC(=O)c1cccc(CNC(=O)Nc2nc3c(s2)-c2c(c(-c4cccnc4)nn2C2CCN(C4CCCC4)CC2)CC3)c1
32 | < 800 nM | CC1CC(c2ccc(O)cc2)CN1C(=O)Nc1nc2c(s1)-c1c(c(-c3cccnc3)nn1-c1ccccc1Cl)CC2 (centres undefined)
33 | < 800 nM | O=C(NCc1ccc(-c2ncc[nH]2)cc1)Nc1nc2c(s1)-c1c(c(-c3cncnc3)nn1-c1ccccc1Cl)CC2
34 | < 800 nM | O=C(NCCc1ccccn1)Nc1nc2c(s1)-c1c(c(-c3cccnc3)nn1-c1ccccc1Cl)CC2
35 | < 800 nM | CN(C)C(=O)[C@@H]1CCCC[C@H]1NC(=O)Nc1nc2c(s1)-c1c(c(-c3ccccc3)nn1-c1ccccc1Cl)CC2
36 | < 800 nM | CN[C@@H](C)C(=O)N1CCC[C@@H]1CNC(=O)Nc1nc2c(s1)-c1c(c(-c3cncnc3)nn1-c1ccccc1Cl)CC2
37 | < 800 nM | CCc1noc(CCNC(=O)Nc2nc3c(s2)-c2c(c(-c4ccccc4)nn2-c2cccc(Cl)c2)CC3)n1
38 | < 800 nM | O=C(Nc1nc2c(s1)-c1c(c(-c3cccnc3)nn1-c1ccccc1Cl)CC2)N1CCC(NC(=O)C(F)(F)F)C1 (centres undefined)
39 | < 800 nM | CC(C)COC(=O)N1CCC[C@@H]1CNC(=O)Nc1nc2c(s1)-c1c(c(-c3cncnc3)nn1-c1ccccc1Cl)CC2
40 | < 800 nM | Cc1c[nH]c(CCNC(=O)Nc2nc3c(s2)-c2c(c(-c4cccnc4)nn2-c2ccccc2Cl)CC3)n1
41 | < 800 nM | CN1CCC(O)C2(CCCN(C(=O)Nc3nc4c(s3)-c3c(c(-c5cccnc5)nn3-c3ccccc3Cl)CC4)C2)C1 (centres undefined)
42 | < 800 nM | CC(C)c1nnc(CCNC(=O)Nc2nc3c(s2)-c2c(c(-c4cccnc4)nn2C2CCN(C)CC2)CC3)o1
43 | < 800 nM | C[C@@H](C(=O)N1CC[C@H](CNC(=O)Nc2nc3c(s2)-c2c(c(-c4cncnc4)nn2-c2ccccc2Cl)CC3)C1)N(C)C(=O)OC(C)(C)C
44 | < 800 nM | CC(C)(C)OC(=O)N1CC[C@H](CNC(=O)Nc2nc3c(s2)-c2c(c(-c4cncnc4)nn2-c2ccccc2Cl)CC3)C1
45 | < 800 nM | CN(C)C(=O)CCNC(=O)Nc1nc2c(s1)-c1c(c(C3CC3)nn1-c1ccccc1Cl)CC2
46 | < 800 nM | COc1cccc(CNC(=O)Nc2nc3c(s2)-c2c(c(-c4cccnc4)nn2C2CCN(C4CCCC4)CC2)CC3)c1
47 | < 800 nM | NC(=O)Nc1cccc(CNC(=O)Nc2nc3c(s2)-c2c(c(-c4cccnc4)nn2-c2ccccc2Cl)CC3)c1
48 | < 800 nM | CNC(=O)c1cccc(CNC(=O)Nc2nc3c(s2)-c2c(c(C4CC4)nn2-c2ccccc2Cl)CC3)c1
49 | < 800 nM | O=C(Nc1nc2c(s1)-c1c(c(-c3cncnc3)nn1-c1ccccc1Cl)CC2)NC1CCCNC1 (centres undefined)
50 | < 800 nM | CC(C)(C)OC(=O)N1CCC(C(=O)N2CCC[C@@H]2CNC(=O)Nc2nc3c(s2)-c2c(c(-c4cncnc4)nn2-c2ccccc2Cl)CC3)C1 (some centres undefined)
51 | < 800 nM | O=C(NCc1cc(CN2CCOCC2)ccn1)Nc1nc2c(s1)-c1c(c(-c3cncnc3)nn1-c1ccccc1Cl)CC2
52 | < 800 nM | O=C(NCCC(=O)N1CCOCC1)Nc1nc2c(s1)-c1c(c(-c3ccccc3)nn1-c1ccccc1Cl)CC2
53 | < 800 nM | Nc1c(Br)cc(OCC2CCN(C(=O)Nc3nc4c(s3)-c3c(c(-c5cccnc5)nn3-c3ccccc3Cl)CC4)C2)cc1Br (centres undefined)
54 | < 800 nM | O=C(NCCCN1CCOCC1)Nc1nc2c(s1)-c1c(c(-c3cncnc3)nn1-c1ccccc1F)CC2

Row | IC50 | SMILES
55 | < 800 nM | CCc1nnc(CCNC(=O)Nc2nc3c(s2)-c2c(c(-c4ccccc4)nn2-c2cccc(Cl)c2)CC3)o1
56 | < 800 nM | O=C(NC[C@H]1CCCN1)Nc1nc2c(s1)-c1c(c(-c3cncnc3)nn1-c1ccccc1F)CC2
57 | < 800 nM | CC(C)(C)OC(=O)CCNC(=O)Nc1nc2c(s1)-c1c(c(Nc3ccccn3)nn1-c1ccccc1)CC2
58 | < 800 nM | COc1cccc(CNC(=O)Nc2nc3c(s2)-c2c(c(-c4cncnc4)nn2-c2ccccc2Cl)CC3)c1
59 | < 800 nM | CN(C)c1cccc(CNC(=O)Nc2nc3c(s2)-c2c(c(-c4cccnc4)nn2-c2ccccc2Cl)CC3)c1
60 | < 800 nM | CN1CCN(CCCNC(=O)Nc2nc3c(s2)-c2c(c(-c4cncnc4)nn2-c2ccccc2Cl)CC3)CC1
61 | < 800 nM | O=C(NCCCN1CCNC1=O)Nc1nc2c(s1)-c1c(c(-c3cccnc3)nn1-c1ccccc1Cl)CC2
62 | < 800 nM | CCn1cnc(CCNC(=O)Nc2nc3c(s2)-c2c(c(-c4cccnc4)nn2C2CCN(C)CC2)CC3)c1
63 | < 800 nM | CN(C)C(=O)N1CC[C@H](CNC(=O)Nc2nc3c(s2)-c2c(c(-c4ccccc4)nn2-c2cccc(Cl)c2)CC3)C1
64 | < 800 nM | CC(=O)Nc1cccc(CNC(=O)Nc2nc3c(s2)-c2c(c(-c4cncnc4)nn2-c2ccccc2Cl)CC3)c1
65 | < 800 nM | Cn1cc(CNC(=O)Nc2nc3c(s2)-c2c(c(-c4cccnc4)nn2-c2ccccc2Cl)CC3)cn1
66 | < 800 nM | O=C(Nc1nc2c(s1)-c1c(c(-c3cccnc3)nn1-c1ccccc1Cl)CC2)NC1CC1
67 | < 800 nM | C[C@@H](NC(=O)Nc1nc2c(s1)-c1c(c(-c3ccccc3)nn1-c1ccccc1Cl)CC2)C(=O)N1CCOCC1
68 | < 800 nM | CCc1cnc(CCNC(=O)Nc2nc3c(s2)-c2c(c(-c4ccccc4)nn2-c2cccc(Cl)c2)CC3)o1
69 | < 800 nM | CCN1CCC(n2nc(-c3cccnc3)c3c2-c2sc(NC(=O)NCc4cccc(N5CCNC5=O)c4)nc2CC3)CC1
70 | < 800 nM | O=C(NCc1cccc(N2CCNC2=O)c1)Nc1nc2c(s1)-c1c(c(-c3cccnc3)nn1-c1ccccc1Cl)CC2
71 | < 800 nM | CC(C)(C)OC(=O)N1CCC[C@H]1CNC(=O)Nc1nc2c(s1)-c1c(c(-c3cncnc3)nn1-c1ccccc1Cl)CC2
72 | < 800 nM | CN(C)C(=O)CCNC(=O)Nc1nc2c(s1)-c1c(c(-c3ccccc3)nn1-c1ccccc1Cl)CC2
73 | < 800 nM | O=C(NCc1cc(C2CC2)n[nH]1)Nc1nc2c(s1)-c1c(c(-c3cncnc3)nn1-c1ccccc1Cl)CC2
74 | < 800 nM | CN(C)S(=O)(=O)c1ccccc1CNC(=O)Nc1nc2c(s1)-c1c(c(-c3ccccc3)nn1-c1ccccc1Cl)CC2
75 | < 800 nM | CCc1csc(CCNC(=O)Nc2nc3c(s2)-c2c(c(-c4cccnc4)nn2-c2ccccc2Cl)CC3)n1
76 | < 800 nM | Cn1cccc1CCNC(=O)Nc1nc2c(s1)-c1c(c(-c3cccnc3)nn1-c1ccccc1Cl)CC2
77 | < 800 nM | O=C1Cc2ccccc2CN1CC1CCN(C(=O)Nc2nc3c(s2)-c2c(c(-c4cccnc4)nn2-c2ccccc2Cl)CC3)C1 (centres undefined)
78 | < 800 nM | CC(C)c1noc(CCNC(=O)Nc2nc3c(s2)-c2c(c(-c4cccnc4)nn2-c2ccccc2Cl)CC3)n1
79 | < 800 nM | CN(C)C(=O)CNC(=O)Nc1nc2c(s1)-c1c(c(-c3cccnc3)nn1C1CCN(C3CCCC3)CC1)CC2
